{
  "source": "patent US20130150346A1",
  "about": "“Use of FAAH Inhibitors for Treating Parkinson's Disease and Restless Legs Syndrome” (Ironwood Pharmaceutical, Inc., priority 2010, published 2013)",
  "system": "MPTP-lesioned macaques",
  "assay": "Motor activity (total activity, high activity time and counts) in MPTP-lesioned macaques treated with URB597 and L-DOPA",
  "type": "in vivo, cynomolgus monkeys (Macaca fascicularis)",
  "from_the_text": "In addition, a quantitative assessment of marmoset activity was made using computer-operated passive infra-red sensors, essentially as described previously (Maccarrone et al., 2003, J. Neurochem. 85: 1018-1025; Visanji et al., 2009 J Pharm Exp Ther 328: 276-283). A single sensor containing a hemispherical lens (Guardall, Mississauga, ON, Canada) was mounted 1.5 m above the top of each the observation cage. The sensor was positioned so that motion was detected throughout the entirety of the cage below. The signal was fed via an RS-232 input to a computer. […] Activity counts were logged in 1-min epochs for the entire 6 h duration of the experiment and cumulated over the peak dose period of 2-4 h.\nAssessment of marmoset activity was further assessed over time by quantifying the average activity of counts per minute of the same animals obtained prior to administration of MPTP (i.e., in the normal state). Activity over the same period of 2-4 h was calculated and used to identify minutes of high activity (a minute when activity was above the average per minute of the animal prior to MPTP). High activity counts (the total counts obtained in high activity minutes) were cumulated. High activity time (the number of high activity minutes) were also calculated.\nSix cynomolgus monkeys (Macaca fascicularis) were used in each experiment. Animals were group housed with up to 3 animals per cage. The cage sizes exceeded UK, NIH, EU and CCAC minimum size recommendations, 2.4 m×3.0 m×1.0 m. The housing room was subject to a 12 hour light-dark cycle (lights on 7 a.m.), temperature 20-25° C. in a room containing only animals of the same sex. Fresh fruit, primate pellets and water was available ad libitum unless specifically described in other examples below.\nThis experiment examined the behavioral responses to five doses of URB597 (0.01, 0.03, 0.1, 0.3 or 1 mg/kg, i.v.) or vehicle in combination with L-DOPA in six parkinsonian macaques previously lesioned with MPTP.\nThe protocols for housing and acclimatization for the six parkinsonian MPTP-lesioned macaques were as those detailed in Example 6.\nAfter acclimatization, the macaques in the MPTP cohort were rendered parkinsonian by once daily subcutaneous injection of 0.2 mg/kg MPTP, administered for 8-12 days, until the first appearance of parkinsonism symptoms. After this time, a parkinsonian syndrome evolved to a moderate to marked level, over approximately 30 days, and stabilized. Additional administrations of MPTP were given to some animals to titrate to similar degrees of parkinsonism in individuals across the group.\nSixty days after commencing MPTP administration, L-DOPA (20 mg/kg) was administered orally twice daily for six months. L-DOPA was administered as Madopar™ (L-DOPA in combination with benserazide). This treatment led to the development of motor fluctuations, including dyskinesia and wearing-off.\nDose-finding studies were performed to define a dose of L-DOPA for each individual macaque that provided the best anti-parkinsonian effect achievable and elicited hyperactivity that was stable and reproducible for that animal, on successive L-DOPA administrations.\nL-DOPA was administered p.o. at a dose volume of 1 ml/kg, as Madopar™ (L-DOPA in combination with benserazide in the ratio 4:1). The vehicle for Madopar™ was water. On days when animals were not subject to behavioral observations they received maintenance oral L-DOPA, Madopar™ (30 mg/kg, p.o.) at approximately 9:00 a.m.\nURB597 was obtained from Cayman Chemical (product #10046) and was formulated in 0.9% sterile saline containing 1% DMSO (v/v) (Sigma-Aldrich product #D2650) and 2% (v/v) Tween-80 (Sigma-Aldrich product #P4780) for dosing at a volume of 1 ml/kg.\nFor each URB597 concentration tested, requisite amounts of URB597 were weighed into sterile 50 ml sterile polypropylene tubes (Falcon™) (e.g., for the 1 mg/kg doses, approximately 35 mg was weighed). […]",
  "data": [
    {"molecule": "NC(=O)c1cccc(-c2cccc(OC(=O)NC3CCCCC3)c2)c1", "note": "[URB597]", "values": [
      {"measurement": "hyperactive behavior compared with treatment with L-DOPA alone", "setting": "0.3 and 1.0 mg/ml (so in the source) URB597 i.v. and L-DOPA p.o.", "result": "significant reduction"},
      {"measurement": "effect on L-DOPA-induced hyperactivity", "setting": "URB597 0.1 mg/kg i.v. + L-DOPA p.o.", "result": "ineffective"},
      {"measurement": "total activity versus L-DOPA treatment only", "setting": "URB597 0.3 mg and 1.0 mg/kg i.v. + L-DOPA p.o., at 3 hrs, RM-ANOVA", "result": "significant effect"},
      {"measurement": "effect on L-DOPA-induced hyperactivity", "setting": "URB597 0.3 mg/kg i.v. + L-DOPA p.o.", "result": "maximally effective"},
      {"measurement": "levels of L-DOPA-induced hyperactivity, dose dependence", "setting": "URB597 0.01-1 mg/kg i.v. + L-DOPA p.o.", "result": "dose-dependently reduced"},
      {"measurement": "hyperactivity over the L-DOPA treatments alone", "setting": "URB597 0.3 and 1.0 mg/kg i.v. + L-DOPA p.o., at 3 hrs post-administration of L-DOPA", "result": "lowered hyperactivity"}
    ]}
  ]
}
